Data published in patent US20230063449A1, “DRG-MDM2-5 FOR USE AS A NOVEL MOUSE DOUBLE MINUTE 2 (MDM2) INHIBITOR” (BAHCESEHIR UNIVERSITESI, priority 2020, published 2023).

Key:
MDM2 protein = MDM2 protein (Homo sapiens, UniProt Q00987); details: compared with natural p53 peptide; cited from earlier work
MDA-MB231 cell lines = experiment: MTT cell viability assay (IC50); type: cell-based; details: Homo sapiens, MDA-MB-231, single dose of treatment, 10^−9 to 10^−4 M, 570 nm absorbance (FIG. 1), read-out: half-maximal inhibitory concentration (IC50)
Method: (§1) HCT 116 colon cancer and MDA-MB231 breast cancer cell lines are used in cell culture experiments.
Cells were treated with high-glucose DMEM medium (Biosera) supplemented with 10% FBS (Gibco) and 1× penicillin/streptomycin (Multicell). The assay was designed to contain 10,000 cells for each well of 24-well cell culture plates before being treated with inhibitors.
Compound of formula I was dissolved with DMSO as 20 mM stock. 24 hours later, the solution was diluted in DMEM with 10% FBS and final concentration of vehicle DMSO was 0.5% at maximum. Therefore, the vehicle group included 0.5% DMSO concentration in experiments. Intensive cultivation of cells causes a decrease in proliferation capacity.
The MTT cell viability assay was used to detect values of half-maximal inhibitory concentration (IC50). Different concentrations of compound of formula I ranging between 10^−9 to 10^−4 M were tested on MDA-MB231 cell lines with single dose of treatment. 570 nm absorbance values were recorded and IC50 values were calculated by dose response—inhibition curves and nonlinear regression analysis on Graphpad Prism 8 software.

[1] = test system: HCT 116 colon cancer and MDA-MB231 breast cancer cell lines; experiment: MTT cell proliferation inhibition analysis; type: cell-based; details: 100 μM; MTT at 12 h, 24 h, 48 h and 72 h; ANOVA, p<0.001 (FIG. 2)
Method: as §1
For proliferation inhibition analysis, cells were seeded in 24 well plates at 1×10^4 cells/well cells overnight without drug treatment. During the cell proliferation experiments, we performed five days of treatment in each cell line and repeated the experiments three times to check each experiment. No significant difference in cell viability was observed after the third day. Therefore, cells with different drug concentrations were treated for two days. After 48 hours, MTT was applied to the cells and incubated at 37° C. for 4 hours, formazan was solubilized with DMSO (Sigma-Aldrich, St. Louis, USA) and absorbance was measured at 570 nm.
Molecule concentration was 100 μM, the lower concentrations were not shown. Vehicle represents the groups treated with only %0.5 DMSO and Untreated represents no molecule treated group. Molecule responses were evaluated by cell viability which is obtained by spectrophotometric analysis of cells upon MTT treatment at 12 h, 24 h, 48 h and 72 h. […] Statistical significance in graphs was determined by comparing each treatment group with DMSO control using ANOVA testing and significance is considered as p<0.001 (FIG. 2).

Sequence of MDM2 protein (Q00987 whole entry, species assumed): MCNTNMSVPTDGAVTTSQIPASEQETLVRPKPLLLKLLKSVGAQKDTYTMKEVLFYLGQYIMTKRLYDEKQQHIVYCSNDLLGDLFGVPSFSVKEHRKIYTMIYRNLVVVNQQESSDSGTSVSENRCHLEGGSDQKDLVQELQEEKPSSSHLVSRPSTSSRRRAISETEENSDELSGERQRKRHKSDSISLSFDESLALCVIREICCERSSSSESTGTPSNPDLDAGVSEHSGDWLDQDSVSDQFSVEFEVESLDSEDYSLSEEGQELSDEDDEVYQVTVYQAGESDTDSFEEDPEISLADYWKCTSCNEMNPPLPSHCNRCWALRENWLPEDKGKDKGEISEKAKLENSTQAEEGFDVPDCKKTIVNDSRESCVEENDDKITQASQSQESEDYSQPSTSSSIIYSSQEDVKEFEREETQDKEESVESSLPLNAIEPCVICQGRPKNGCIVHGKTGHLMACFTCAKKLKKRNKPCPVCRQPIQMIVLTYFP

MI-319
binding affinity to MDM2 protein relative to a natural p53 peptide (MDM2 protein): 500 fold

O=C(CSCc1ccccc1)NC(CC1CNc2ccccc21)C(=O)O (stereo not drawn) [compound of formula I]
IC50 (MDA-MB231 cell lines): 98 µM
cell viability (MTT) compared to vehicle and untreated groups [1]: statistically significant difference compared to vehicle and untreated groups
